Laboratory results: patent US20060035810A1, “Regulation of ins(3456)p4 signalling by a reversible kinase phosphatase and methods and compositions related thereto” (priority 2002, published 2006)

Legend:
[1] = tested on: insulin granules in pancreatic β-cells; assay: Insulin granule acidification, LSG fluorescence with patch-clamp and confocal imaging; assay type: cell-based, mouse; settings: DIDS 100 μM in bath solution 30 min prior to patching
Experimental: FIG. 6. Ins(3,4,5,6)P4 inhibits acidification of insulin granules in pancreatic β-cells. FIG. 6A, Representative time-courses for intragranular acidification, monitored by increased fluorescence of LSG before and after establishment of the standard whole-cell configuration (see arrow) and the effect of perfusion of intracellular medium (containing 0.4 μM [Ca^2+]free except where “no calcium” is indicated; see Methods) plus either 0 (“control”), 1 or 10 μM Ins(3,4,5,6)P4. FIG. 6B, Mean (±SE) fluorescence changes (n-5-11), during the 60 s that followed establishment of the standard whole-cell configuration, for cells perfused with inositol phosphates as indicated at the base of the bar graph. Where indicated, DIDS (100 μM) were added to the bath solution 30 min prior to patching the cells. Statistical significance was evaluated by Student's unpaired t-test (* P<0.01).
The inositol phosphates used in this study were all purchased from CellSignals Inc (Lexington, Ky.). Insulin granule pH were monitored by combining the patch-clamp technique with confocal imaging. Pancreatic β-cells, isolated and cultured on glass coverslips for 2-24 h, were voltage clamped at −70 mV, as previously described (B9). LysoSensor-Green™ DND-189 (1 μM; Molecular Probes, Leiden, The Netherlands) was added during the last 30 min of cell culture and was also included in the extracellular buffer (B9) that continuously perfused the experimental chamber. All LSG experiments were performed at 20° C. to prevent exocytosis that otherwise interfered with the optical measurements (15). LSG fluorescence was excited using the 488 nm-line of a Zeiss 510 confocal microscope. The emitted light was collected with a 63×/1.3 NA oil objective and a >505 nm filter. Laser scanning was performed with low pixel resolution (128×128) and with 6 s intervals to minimize photo-bleaching. After gigaseal formation, it was ascertained that LSG fluorescence was stable for at least 30 s before the experiment commenced. The intracellular electrode solution contained: 125 mM K-glutamate, 10 mM KCl, 1 0 mM NaCl, 1 mM MgCl2, 5 mM HEPES, 3 mM Mg-ATP, 0.1 mM cAMP, 10 mM EGTA and 7 mM CaCl2 (˜0.4 μM free [Ca^2+]I; pH 7.2 with KOH). In some experiments, marked “no calcium”, there was no added Ca^2+, and the concentration of EGTA was 50 μM. Whole-cell capacitance measurements (at 33° C.) were made with the cells clamped at −70 mV, and the standard whole-cell configuration was established at t=0. Capacitance recordings were made using an EPC-7 patch-clamp amplifier equipped with the software Pulse (version 8.4 and later) and the X-chart extension (HEKA Elektronik, Lambrecht/Pfalz, Germany) (B9).

[2] = tested on: insulin granules in pancreatic β-cells; assay: CCCP-mediated de-acidification of insulin granules, LSG fluorescence; assay type: cell-based, mouse; settings: DIDS blockade of Cl− conductance, CCCP
Experimental: FIG. 7A, Representative confocal images of LSG fluorescence immediately before (zero) and 60 s after perfusion of cells with intracellular buffer supplemented with 100 μM of the protonophore, CCCP, in the absence or presence of 10 μM Ins(3,4,5,6)P4. FIG. 7B, Representative time-courses for changes in LSG-fluorescence ([F/F0] as % of zero time) immediately after establishing a standard whole-cell configuration as in panel A, with intracellular medium (containing 0.4 μM [Ca^2+]free except where “no calcium” is indicated; see Methods) plus 100 μM CCCP, together with either 0 (“control”) or 10 μM Ins(3,4,5,6)P4. FIG. 7C, Mean (±SE) fluorescence changes (n=4-6), during the 60 s that followed establishment of the standard whole-cell configuration, for cells perfused with intracellular medium supplemented with inositol phosphates as indicated at the base of the bar graph ([…]).
The inositol phosphates used in this study were all purchased from CellSignals Inc (Lexington, Ky.). Insulin granule pH were monitored by combining the patch-clamp technique with confocal imaging. Pancreatic β-cells, isolated and cultured on glass coverslips for 2-24 h, were voltage clamped at −70 mV, as previously described (B9). LysoSensor-Green™ DND-189 (1 μM; Molecular Probes, Leiden, The Netherlands) was added during the last 30 min of cell culture and was also included in the extracellular buffer (B9) that continuously perfused the experimental chamber. All LSG experiments were performed at 20° C. to prevent exocytosis that otherwise interfered with the optical measurements (15). LSG fluorescence was excited using the 488 nm-line of a Zeiss 510 confocal microscope. The emitted light was collected with a 63×/1.3 NA oil objective and a >505 nm filter. Laser scanning was performed with low pixel resolution (128×128) and with 6 s intervals to minimize photo-bleaching. After gigaseal formation, it was ascertained that LSG fluorescence was stable for at least 30 s before the experiment commenced. The intracellular electrode solution contained: 125 mM K-glutamate, 10 mM KCl, 1 0 mM NaCl, 1 mM MgCl2, 5 mM HEPES, 3 mM Mg-ATP, 0.1 mM cAMP, 10 mM EGTA and 7 mM CaCl2 (˜0.4 μM free [Ca^2+]I; pH 7.2 with KOH). In some experiments, marked “no calcium”, there was no added Ca^2+, and the concentration of EGTA was 50 μM. Whole-cell capacitance measurements (at 33° C.) were made with the cells clamped at −70 mV, and the standard whole-cell configuration was established at t=0. Capacitance recordings were made using an EPC-7 patch-clamp amplifier equipped with the software Pulse (version 8.4 and later) and the X-chart extension (HEKA Elektronik, Lambrecht/Pfalz, Germany) (B9). […]

[3] = target: T1, Ins(1,3,4,5,6)P5 1-phosphatase activity of Ins(3,4,5,6)P4 kinase (Homo sapiens, UniProt Q13572); assay: Inositol phosphate phosphatase activity assay with ADP (HPLC); assay type: biochemical; settings: 5 mM ADP, trace amounts of substrate
T1 construct: made in house; host or cells: E. coli
T1 sequence (Q13572 1-414): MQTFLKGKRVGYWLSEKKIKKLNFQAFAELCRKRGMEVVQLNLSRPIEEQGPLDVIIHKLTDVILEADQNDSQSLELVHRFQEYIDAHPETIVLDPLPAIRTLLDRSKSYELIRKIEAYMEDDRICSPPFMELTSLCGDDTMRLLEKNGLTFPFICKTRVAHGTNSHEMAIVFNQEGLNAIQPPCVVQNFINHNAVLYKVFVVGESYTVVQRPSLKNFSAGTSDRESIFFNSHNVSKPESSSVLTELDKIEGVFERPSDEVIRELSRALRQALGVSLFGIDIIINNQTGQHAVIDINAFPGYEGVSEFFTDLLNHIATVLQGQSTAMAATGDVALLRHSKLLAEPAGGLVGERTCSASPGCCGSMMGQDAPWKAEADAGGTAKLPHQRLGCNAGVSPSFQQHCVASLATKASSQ
Experimental: Ins(3,4,5,6)P4 kinase (0.4 μg) was incubated for 30 min in 100 μl phosphatase assay buffer (see Methods) either with (closed circles) or without (open circles) 5 mM ADP plus trace-amounts of either [^3H]Ins(1,3,4,5,6)P5 (panel A) [^3H]Ins(1,3,4,6)P4 (panel B), or [^3H]Ins(1,3,4,5)P4 (panel C). Samples were analyzed by HPLC (see Methods). The elution positions of Ins(1,3,4)P3 and Ins(3,4,5,6)P4 were verified with genuine standards. The elution positions of Ins(1,3,4,6)P4 (106 min, panel B) and of Ins(1,3,4,5)P4 (110 min, panel C) exclude these as products of InsP5 dephosphorylation (panel A).
Additional incubations were performed with 5 μM [^3H]Ins(1,3,4)P3 (approx. 1200 d.p.m.) plus either no Ins(1,3,4,5,6)P5 (open circles) or 5 μM non-radiolabeled Ins(1,3,4,5,6)P5 (closed circles); these reactions were assayed by HPLC (Synchropak Q100 column) and the InsP4 region of the chromatogram is shown in Panel B.
(§1) Inositol phosphate phosphatase activity was assayed in buffer containing 100 mM KCl, 20 mM HEPES pH 7.2, 5 mM ADP, 6 mM MgSO4, 0.3 mg/ml bovine serum albumin. Assays were acid-quenched, neutralized and analyzed by HPLC using a Synchropak Q100 columm (Caffrey et al., “Expanding Coincident Signaling by PTEN through its Inositol 1,3,4,5,6-Pentakisphosphate 3-phosphatase Activity,” FEBS Lett 499: 6-10 (2001)); 1 ml fractions were collected for 70 min., followed by 0.5 ml fractions. Inositol phosphate kinase activity was assayed in buffer containing 100 mM KCl, 20 mM HEPES pH 7.2, 5 mM ATP, 10 mM phosphocreatine, 6 mM MgSO4, 10 μg/ml creatine phosphokinase (Calbiochem), 0.3 mg/ml bovine serum albumin. Some assays were acid-quenched and analyzed by HPLC using a Synchropak Q100 column. Other reactions were heat-inactivated (95° C., 3 min) and analyzed by a metal dye detection, HPLC method (Mayr, “A novel metal-dye detection sysytem permits picomolar-range h.p.l.c. analysis of inositol polyphosphates from non-radioactively labelled cell or tissue specimens,” Biochem J 254: 585-591 (1988); Adelt et al., “Enzyme-assisted total synthesis of the optical antipodes D-myo-inositol 3,4,5-trisphosphate and D-myo-inositol 1,5,6-trisphosphate: aspects of their structure-activity relationship to biologically active inositol phosphates,” J Med Chem 42: 1262-1273 (1999)).

[4] = target: T2, Recombinant human Ins(3,4,5,6)P4 1-kinase (Homo sapiens, UniProt Q13572); assay: Inositol phosphate kinase activity assay (HPLC); assay type: biochemical
T2 construct: made in house; host or cells: E. coli
T2 sequence (Q13572 1-414): T1 sequence (Q13572 1-414)
Experimental: as §1
Activity of 3.4 ug of inositol 3,4,5,6-tetrakisphosphate 1-kinase was assayed for 4 hr. at 37° C. in 200 μl buffer containing 100 mM KCl, 20 mM HEPES pH 7.2, 5 mM ATP, 10 mM phosphocreatine, 6 mM MgSO4, 10 μg/ml creatine phosphokinase (Calbiochem), 0.3 mg/ml bovine serum albumin and 50 uM of either inositol 3,4,5-trisphosphate, 4,5,6-trisphosphate or inositol 3,5,6-trisphosphate. Reactions were heat-inactivated (95° C., 3 min) and analyzed by a metal dye detection, HPLC method.
[…] (Manassas, Va.) supplied the CFPAC-1 cells and T84 cells. Recombinant human Ins(3,4,5,6)P4 1-kinase was expressed in E. coli and purified (Yang et al., “Multitasking in Signal Transduction by a Promiscuous Human Ins(3,4,5,6)P4 1-Kinase/Ins(1,3,4)P3 5/6-Kinase,” Biochem J 351: 551-555 (2000)). Non-radiolabeled Ins(1,3,4)P3 and Ins(1,3,4,5,6)P5 were purchased from CellSignals Inc (Lexington, Ky.). The details of the synthesis of non-radiolabeled Ins(3,4,5)P3, Ins(3,5,6)P3, Ins(4,5,6)P3 and Ins(3,4,6)P3 (as sodium salts) will be published separately by S.-K. C. Ins(3,4,6)P3 was also prepared by a different synthetic route (Mills et al., “Synthesis of D- and L-myo-inositol 1,4,6-trisphosphate, regioisomers of a ubiquitous second messenger,” J Org Chem 61: 8980-8987 (1996)). [^3H]Ins(1,3,4,5,6)P5 was prepared as previously described (Zhang et al., “The Transcriptional Regulator, Arg82, is a Hybrid Kinase with both Monophosphoinositol- and Diphosphoinositol-Polyphosphate Synthase Activity,” FEBS Lett 494: 208-212 (2001)). [^3H]Ins(1,3,4)P3 was prepared from [^3H]Ins(1,3,4,5)P4 (New England Nuclear) using recombinant Ins(1,4,5)P3/Ins(1,3,4,5)P4 5-phosphatase (Erneux et al., “Production of recombinant human brain type I inositol-1,4,5-trisphosphate 5-phosphatase in Escherichia coli. Lack of phosphorylation by protein kinase C,” Eur J Biochem 234: 598-602 (1995)). [^3H]Ins(1,3,4)P3 was converted to [^3H]Ins(1,3,4,6)P4 using Ins(1,3,4)P3 6-kinase activity (Yang et al., “Multitasking in Signal Transduction by a Promiscuous Human Ins(3,4,5,6)P4 1-Kinase/Ins(1,3,4)P3 5/6-Kinase,” Biochem J 351: 551-555 (2000)). [^3H]Ins(3,4)P2 was prepared by alkaline phosphatase attack on [^3H]Ins(1,3,4)P3 in 20 mM glycine (pH 9.0 with KOH). [^3H]Ins(1,4)P2 was purchased from New England Nuclear.

## O=S(=O)(O)c1cc(N=C=S)ccc1C=Cc1ccc(N=C=S)cc1S(=O)(=O)O [DIDS, 4,4′-diisothiocyanostilbene-2,2′-disulfonic acid]
[1]
  effect on granule acidification: inhibited
[2]
  effect on loss of H+ from the granules: inhibited

## O=P(O)(O)O[C@@H]1C(O)[C@H](OP(=O)(O)O)[C@@H](OP(=O)(O)O)C(O)[C@H]1OP(=O)(O)O (stereo partly shown) [Ins(1,3,4,6)P4]
[3]
  product of ADP-dependent dephosphorylation: dephosphorylated to Ins(1,3,4)P3
[4]
  whether the enzyme phosphorylates the inositol phosphate: does not phosphorylate
